In ChEMBL document CHEMBL5058645, “Data for DCP probe JNJ-6204” (2022):

Tests used:
[1] = target: Serine/threonine-protein kinase ULK2 (Homo sapiens) (UniProt Q8IYT8); assay: ULK2(h) Kinase panel; conditions: Compound concentration 1.0 uM, tested as the 2H-labelled form
[2] = target: eIF-2-alpha kinase GCN2 (Homo sapiens) (UniProt Q9P2K8); assay: GCN2(h) Kinase panel; conditions: Compound concentration 1.0 uM, tested as the 2H-labelled form
[3] = target: Muscarinic acetylcholine receptor M3 (Homo sapiens) (UniProt P20309); conditions: Compound concentration 10.0 uM, tested as the 2H-labelled form
[4] = target: Serine/threonine-protein kinase TBK1 (Homo sapiens) (UniProt Q9UHD2); assay: TBK1(h) Kinase panel; conditions: Compound concentration 1.0 uM, tested as the 2H-labelled form
[5] = target: Serine/threonine-protein kinase Nek9 (Homo sapiens) (UniProt Q8TD19); assay: NEK9(h) Kinase panel; conditions: Compound concentration 1.0 uM, tested as the 2H-labelled form
[6] = target: Myosin-IIIb (Homo sapiens) (UniProt Q8WXR4); assay: MYO3B(h) Kinase panel; conditions: Compound concentration 1.0 uM, tested as the 2H-labelled form
Homo sapiens = species on record: Homo sapiens; assay: CK2(h) Kinase panel; conditions: Compound concentration 1.0 uM, tested as the 2H-labelled form
[7] = target: Platelet-derived growth factor receptor beta (Homo sapiens) (UniProt P09619); assay: PDGFRbeta(h) Kinase panel; conditions: Compound concentration 1.0 uM, tested as the 2H-labelled form
[8] = target: Testis-specific serine/threonine-protein kinase 2 (Homo sapiens) (UniProt Q96PF2); assay: TSSK2(h) Kinase panel; conditions: Compound concentration 1.0 uM, tested as the 2H-labelled form
[9] = target: Serine/threonine-protein kinase NIM1 (Homo sapiens) (UniProt Q8IY84); assay: NIM1(h) Kinase panel; conditions: Compound concentration 1.0 uM, tested as the 2H-labelled form
[10] = target: 5'-AMP-activated protein kinase catalytic subunit alpha-2 (Homo sapiens, UniProt P54646); assay: AMPKalpha2(h) Kinase panel; conditions: Compound concentration 1.0 uM, tested as the 2H-labelled form
[11] = target: Sodium-dependent serotonin transporter (Homo sapiens) (UniProt P31645); conditions: Compound concentration 10.0 uM, tested as the 2H-labelled form
[12] = target: Casein kinase I isoform epsilon (Homo sapiens, UniProt P49674); assay: CK1epsilon(h) Kinase panel; conditions: Compound concentration 1.0 uM, tested as the 2H-labelled form
[13] = target: Serine/threonine-protein kinase TAO2 (Homo sapiens) (UniProt Q9UL54); assay: TAO2(h) Kinase panel; conditions: Compound concentration 1.0 uM, tested as the 2H-labelled form
[14] = target: Serine/threonine-protein kinase ULK3 (Homo sapiens) (UniProt Q6PHR2); assay: ULK3(h) Kinase panel; conditions: Compound concentration 1.0 uM, tested as the 2H-labelled form
Sequence of Serine/threonine-protein kinase ULK3 (Homo sapiens) (Q6PHR2 whole entry): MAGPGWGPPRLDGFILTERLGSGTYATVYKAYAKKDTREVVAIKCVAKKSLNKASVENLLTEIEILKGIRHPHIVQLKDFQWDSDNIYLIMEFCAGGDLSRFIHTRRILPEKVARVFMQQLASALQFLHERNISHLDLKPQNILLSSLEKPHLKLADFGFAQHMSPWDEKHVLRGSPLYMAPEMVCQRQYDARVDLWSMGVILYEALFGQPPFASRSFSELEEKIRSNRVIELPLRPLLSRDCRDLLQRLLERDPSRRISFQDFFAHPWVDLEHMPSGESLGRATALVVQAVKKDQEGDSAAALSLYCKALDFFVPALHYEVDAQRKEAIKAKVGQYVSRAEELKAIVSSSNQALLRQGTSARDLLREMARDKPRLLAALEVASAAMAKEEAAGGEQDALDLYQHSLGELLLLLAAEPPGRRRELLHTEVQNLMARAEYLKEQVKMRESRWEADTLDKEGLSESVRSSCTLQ

[15] = target: Muscle, skeletal receptor tyrosine-protein kinase (Homo sapiens) (UniProt O15146); assay: MuSK(h) Kinase panel; conditions: Compound concentration 1.0 uM, tested as the 2H-labelled form
[16] = target: Dual specificity mitogen-activated protein kinase kinase 6 (Homo sapiens) (UniProt P52564); assay: MKK6(h) Kinase panel; conditions: Compound concentration 1.0 uM, tested as the 2H-labelled form
Sequence of Dual specificity mitogen-activated protein kinase kinase 6 (Homo sapiens) (P52564 whole entry): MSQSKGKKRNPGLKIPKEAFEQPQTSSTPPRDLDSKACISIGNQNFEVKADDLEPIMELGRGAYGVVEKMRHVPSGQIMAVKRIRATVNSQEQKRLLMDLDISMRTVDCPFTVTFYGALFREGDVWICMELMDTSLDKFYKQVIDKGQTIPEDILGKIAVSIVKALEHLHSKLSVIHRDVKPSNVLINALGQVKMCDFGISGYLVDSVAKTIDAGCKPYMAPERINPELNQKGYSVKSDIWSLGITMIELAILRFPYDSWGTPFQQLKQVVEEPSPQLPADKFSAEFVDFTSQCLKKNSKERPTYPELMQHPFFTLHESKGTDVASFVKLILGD

[17] = target: cGMP-dependent protein kinase 1 (Homo sapiens) (UniProt Q13976); assay: PKG1beta (h) Kinase panel; conditions: Compound concentration 1.0 uM, tested as the 2H-labelled form
Sequence of cGMP-dependent protein kinase 1 (Homo sapiens) (Q13976 whole entry): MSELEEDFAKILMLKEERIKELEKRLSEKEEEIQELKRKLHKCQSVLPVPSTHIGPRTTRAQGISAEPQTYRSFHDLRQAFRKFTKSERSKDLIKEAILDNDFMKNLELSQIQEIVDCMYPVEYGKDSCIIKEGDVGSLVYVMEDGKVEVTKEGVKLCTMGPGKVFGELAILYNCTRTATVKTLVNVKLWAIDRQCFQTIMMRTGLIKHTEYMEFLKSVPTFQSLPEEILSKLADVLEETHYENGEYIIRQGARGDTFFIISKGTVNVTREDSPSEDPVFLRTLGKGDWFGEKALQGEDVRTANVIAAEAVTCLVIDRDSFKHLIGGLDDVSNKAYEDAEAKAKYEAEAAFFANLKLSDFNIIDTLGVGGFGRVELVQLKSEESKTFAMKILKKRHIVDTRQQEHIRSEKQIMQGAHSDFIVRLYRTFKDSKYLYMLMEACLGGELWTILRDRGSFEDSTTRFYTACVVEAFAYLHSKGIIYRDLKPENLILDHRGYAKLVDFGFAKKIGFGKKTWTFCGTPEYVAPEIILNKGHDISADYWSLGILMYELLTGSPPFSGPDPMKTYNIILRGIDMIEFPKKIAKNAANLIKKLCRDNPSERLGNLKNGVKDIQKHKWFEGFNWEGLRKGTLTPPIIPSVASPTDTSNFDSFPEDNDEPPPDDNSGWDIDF

[18] = target: Cyclin-dependent kinase 12 (Homo sapiens) (UniProt Q9NYV4); assay: CDK12/cyclinK(h) Kinase panel; conditions: Compound concentration 1.0 uM, tested as the 2H-labelled form
[19] = target: Serine/threonine-protein kinase Nek4 (Homo sapiens) (UniProt P51957); assay: NEK4(h) Kinase panel; conditions: Compound concentration 1.0 uM, tested as the 2H-labelled form
[20] = target: Receptor-interacting serine/threonine-protein kinase 1 (Homo sapiens) (UniProt Q13546); assay: RIPK1(h) Kinase panel; conditions: Compound concentration 1.0 uM, tested as the 2H-labelled form
[21] = target: Ephrin type-B receptor 1 (Homo sapiens) (UniProt P54762); assay: EphB1(h) Kinase panel; conditions: Compound concentration 1.0 uM, tested as the 2H-labelled form
[22] = target: Calcium/calmodulin-dependent protein kinase type IV (Homo sapiens) (UniProt Q16566); assay: CaMKIV(h) Kinase panel; conditions: Compound concentration 1.0 uM, tested as the 2H-labelled form
[23] = target: D(1A) dopamine receptor (Homo sapiens) (UniProt P21728); conditions: Compound concentration 10.0 uM, tested as the 2H-labelled form
[24] = target: Mitogen-activated protein kinase kinase kinase 11 (Homo sapiens) (UniProt Q16584); assay: MLK3(h) Kinase panel; conditions: Compound concentration 1.0 uM, tested as the 2H-labelled form
[25] = target: Serine/threonine-protein kinase DCLK3 (Homo sapiens) (UniProt Q9C098); assay: DCAMKL3(h) Kinase panel; conditions: Compound concentration 1.0 uM, tested as the 2H-labelled form
[26] = target: Focal adhesion kinase 1 (Homo sapiens) (UniProt Q05397); assay: FAK(h) Kinase panel; conditions: Compound concentration 1.0 uM, tested as the 2H-labelled form
Sequence of Focal adhesion kinase 1 (Homo sapiens) (Q05397 2-1052 limits assumed): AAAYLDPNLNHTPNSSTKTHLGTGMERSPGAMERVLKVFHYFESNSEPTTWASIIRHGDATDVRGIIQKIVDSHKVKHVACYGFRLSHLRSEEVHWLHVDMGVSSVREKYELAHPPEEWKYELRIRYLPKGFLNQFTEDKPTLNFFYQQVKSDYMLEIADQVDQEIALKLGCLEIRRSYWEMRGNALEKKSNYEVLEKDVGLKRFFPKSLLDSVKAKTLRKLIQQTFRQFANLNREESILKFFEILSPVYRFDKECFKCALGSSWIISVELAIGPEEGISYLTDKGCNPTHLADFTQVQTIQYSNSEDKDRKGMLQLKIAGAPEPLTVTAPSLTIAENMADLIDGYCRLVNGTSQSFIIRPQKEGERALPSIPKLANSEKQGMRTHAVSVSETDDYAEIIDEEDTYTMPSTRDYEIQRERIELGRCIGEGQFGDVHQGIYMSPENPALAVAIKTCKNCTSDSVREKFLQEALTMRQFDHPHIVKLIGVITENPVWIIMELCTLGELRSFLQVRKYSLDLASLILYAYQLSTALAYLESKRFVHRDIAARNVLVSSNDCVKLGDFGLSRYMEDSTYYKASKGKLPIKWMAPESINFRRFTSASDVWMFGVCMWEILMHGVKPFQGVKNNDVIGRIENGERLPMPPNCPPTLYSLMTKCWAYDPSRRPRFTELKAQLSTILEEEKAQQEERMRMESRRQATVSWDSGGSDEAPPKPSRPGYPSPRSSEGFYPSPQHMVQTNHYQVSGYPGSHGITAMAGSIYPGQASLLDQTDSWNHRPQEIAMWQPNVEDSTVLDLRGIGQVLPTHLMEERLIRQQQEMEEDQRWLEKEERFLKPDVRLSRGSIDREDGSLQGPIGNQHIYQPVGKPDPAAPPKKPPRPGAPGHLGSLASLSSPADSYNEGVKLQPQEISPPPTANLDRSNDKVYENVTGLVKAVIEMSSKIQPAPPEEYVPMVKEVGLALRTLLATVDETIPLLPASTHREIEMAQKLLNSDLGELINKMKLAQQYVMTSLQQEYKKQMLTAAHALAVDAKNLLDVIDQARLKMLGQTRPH

[27] = target: RAC-alpha serine/threonine-protein kinase (Homo sapiens) (UniProt P31749); assay: PKBalpha (h) Kinase panel; conditions: Compound concentration 1.0 uM, tested as the 2H-labelled form
[28] = target: Serine/threonine-protein kinase Sgk3 (Homo sapiens) (UniProt Q96BR1); assay: SGK3(h) Kinase panel; conditions: Compound concentration 1.0 uM, tested as the 2H-labelled form
[29] = target: Cyclin-dependent kinase 7 (Homo sapiens) (UniProt P50613); assay: CDK7/cyclinH/MAT1(h) Kinase panel; conditions: Compound concentration 1.0 uM, tested as the 2H-labelled form
[30] = target: Cyclin-dependent kinase 5 (Homo sapiens) (UniProt Q00535); assay: CDK5/p35(h) Kinase panel; conditions: Compound concentration 1.0 uM, tested as the 2H-labelled form
[31] = target: Mitogen-activated protein kinase 12 (Homo sapiens) (UniProt P53778); assay: SAPK3(h) Kinase panel; conditions: Compound concentration 1.0 uM, tested as the 2H-labelled form
[32] = target: Serine/threonine-protein kinase/endoribonuclease IRE1 (Homo sapiens) (UniProt O75460); assay: IRE1(h) Kinase panel; conditions: Compound concentration 1.0 uM, tested as the 2H-labelled form
[33] = target: Mitogen-activated protein kinase kinase kinase 3 (Homo sapiens) (UniProt Q99759); assay: MEKK3(h) Kinase panel; conditions: Compound concentration 1.0 uM, tested as the 2H-labelled form
[34] = target: Serine/threonine-protein kinase 38-like (Homo sapiens, UniProt Q9Y2H1); assay: NDR2(h) Kinase panel; conditions: Compound concentration 1.0 uM, tested as the 2H-labelled form
[35] = target: Histamine H1 receptor (Homo sapiens) (UniProt P35367); conditions: Compound concentration 10.0 uM, tested as the 2H-labelled form
[36] = target: Tau-tubulin kinase 1 (Homo sapiens) (UniProt Q5TCY1); assay: TTBK1(h) Kinase panel; conditions: Compound concentration 1.0 uM, tested as the 2H-labelled form
Sequence of Tau-tubulin kinase 1 (Homo sapiens) (Q5TCY1 whole entry): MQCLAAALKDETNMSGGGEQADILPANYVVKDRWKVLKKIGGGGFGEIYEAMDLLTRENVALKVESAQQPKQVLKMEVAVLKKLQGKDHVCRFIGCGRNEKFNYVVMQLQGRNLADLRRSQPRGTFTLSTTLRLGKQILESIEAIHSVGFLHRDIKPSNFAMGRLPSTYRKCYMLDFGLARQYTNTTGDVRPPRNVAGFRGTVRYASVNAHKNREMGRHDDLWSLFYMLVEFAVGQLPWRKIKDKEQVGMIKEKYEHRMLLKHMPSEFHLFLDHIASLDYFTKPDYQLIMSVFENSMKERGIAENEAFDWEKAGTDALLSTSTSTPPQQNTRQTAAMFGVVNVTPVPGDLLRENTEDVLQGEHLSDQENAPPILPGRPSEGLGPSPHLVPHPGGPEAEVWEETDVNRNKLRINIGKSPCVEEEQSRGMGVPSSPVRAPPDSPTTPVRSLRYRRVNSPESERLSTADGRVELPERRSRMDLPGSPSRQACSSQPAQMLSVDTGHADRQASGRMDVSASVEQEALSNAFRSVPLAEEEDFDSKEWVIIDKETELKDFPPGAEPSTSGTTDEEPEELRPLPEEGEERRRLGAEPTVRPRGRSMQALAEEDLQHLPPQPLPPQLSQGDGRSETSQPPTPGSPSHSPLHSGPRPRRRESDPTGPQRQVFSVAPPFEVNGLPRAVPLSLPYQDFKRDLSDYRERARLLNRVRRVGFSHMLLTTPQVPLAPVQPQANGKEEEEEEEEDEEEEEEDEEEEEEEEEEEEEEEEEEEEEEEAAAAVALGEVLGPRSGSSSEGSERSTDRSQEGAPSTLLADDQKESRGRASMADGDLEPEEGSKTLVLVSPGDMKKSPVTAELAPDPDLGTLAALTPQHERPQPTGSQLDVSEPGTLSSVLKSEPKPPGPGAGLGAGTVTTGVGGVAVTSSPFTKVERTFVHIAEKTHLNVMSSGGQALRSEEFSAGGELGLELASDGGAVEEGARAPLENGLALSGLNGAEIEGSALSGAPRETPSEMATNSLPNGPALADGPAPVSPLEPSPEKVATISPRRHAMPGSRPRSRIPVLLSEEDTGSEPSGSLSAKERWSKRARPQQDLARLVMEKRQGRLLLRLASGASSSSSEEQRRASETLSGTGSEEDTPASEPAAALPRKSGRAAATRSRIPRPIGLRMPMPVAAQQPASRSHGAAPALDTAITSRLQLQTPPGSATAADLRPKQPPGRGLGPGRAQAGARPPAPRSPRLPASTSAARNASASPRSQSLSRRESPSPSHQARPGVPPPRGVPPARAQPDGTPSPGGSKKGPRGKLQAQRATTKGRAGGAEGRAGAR

[37] = target: MAP/microtubule affinity-regulating kinase 4 (Homo sapiens) (UniProt Q96L34); assay: MARK4(h) Kinase panel; conditions: Compound concentration 1.0 uM, tested as the 2H-labelled form
Sequence of MAP/microtubule affinity-regulating kinase 4 (Homo sapiens) (Q96L34 whole entry): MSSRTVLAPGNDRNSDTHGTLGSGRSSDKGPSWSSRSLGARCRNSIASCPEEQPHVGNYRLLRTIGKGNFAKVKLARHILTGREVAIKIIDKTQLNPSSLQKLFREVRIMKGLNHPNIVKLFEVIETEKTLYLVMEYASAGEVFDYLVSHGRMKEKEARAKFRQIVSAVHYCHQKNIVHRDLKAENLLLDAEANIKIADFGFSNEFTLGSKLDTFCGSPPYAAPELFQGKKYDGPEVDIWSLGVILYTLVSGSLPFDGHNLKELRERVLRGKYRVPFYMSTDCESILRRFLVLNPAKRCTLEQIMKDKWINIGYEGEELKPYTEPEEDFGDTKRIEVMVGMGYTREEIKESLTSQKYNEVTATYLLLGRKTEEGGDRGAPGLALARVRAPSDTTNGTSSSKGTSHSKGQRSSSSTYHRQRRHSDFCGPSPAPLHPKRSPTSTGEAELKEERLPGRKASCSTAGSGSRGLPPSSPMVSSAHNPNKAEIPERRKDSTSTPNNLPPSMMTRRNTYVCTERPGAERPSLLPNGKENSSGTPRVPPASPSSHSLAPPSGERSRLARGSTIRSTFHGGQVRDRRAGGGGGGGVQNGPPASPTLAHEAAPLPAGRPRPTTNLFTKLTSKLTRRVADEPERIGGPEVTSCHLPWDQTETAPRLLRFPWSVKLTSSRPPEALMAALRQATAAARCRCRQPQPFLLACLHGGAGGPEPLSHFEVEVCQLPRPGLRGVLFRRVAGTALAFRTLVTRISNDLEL

[38] = target: Protein kinase C delta type (Homo sapiens) (UniProt Q05655); assay: PKCdelta (h) Kinase panel; conditions: Compound concentration 1.0 uM, tested as the 2H-labelled form
[39] = target: Death-associated protein kinase 2 (Homo sapiens) (UniProt Q9UIK4); assay: DAPK2(h) Kinase panel; conditions: Compound concentration 1.0 uM, tested as the 2H-labelled form
[40] = target: Serine/threonine-protein kinase 32A (Homo sapiens) (UniProt Q8WU08); assay: STK32A(h) Kinase panel; conditions: Compound concentration 1.0 uM, tested as the 2H-labelled form
Sequence of Serine/threonine-protein kinase 32A (Homo sapiens) (Q8WU08 whole entry): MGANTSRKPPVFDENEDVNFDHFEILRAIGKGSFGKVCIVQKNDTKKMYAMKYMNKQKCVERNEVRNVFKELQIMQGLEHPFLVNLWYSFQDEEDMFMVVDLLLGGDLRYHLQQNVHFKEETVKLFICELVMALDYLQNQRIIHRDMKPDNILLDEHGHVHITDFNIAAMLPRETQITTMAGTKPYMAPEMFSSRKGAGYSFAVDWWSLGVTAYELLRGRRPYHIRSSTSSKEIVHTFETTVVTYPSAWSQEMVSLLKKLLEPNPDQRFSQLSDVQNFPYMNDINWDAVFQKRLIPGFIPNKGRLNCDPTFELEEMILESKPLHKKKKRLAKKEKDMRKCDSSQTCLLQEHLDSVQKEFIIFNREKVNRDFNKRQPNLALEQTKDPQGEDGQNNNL

[41] = target: Mitogen-activated protein kinase kinase kinase 5 (Homo sapiens) (UniProt Q99683); assay: ASK1(h) Kinase panel; conditions: Compound concentration 1.0 uM, tested as the 2H-labelled form
[42] = target: Serine/threonine-protein kinase SIK1 (Homo sapiens) (UniProt P57059); assay: SIK(h) Kinase panel; conditions: Compound concentration 1.0 uM, tested as the 2H-labelled form
[43] = target: Mitogen-activated protein kinase kinase kinase 2 (Homo sapiens) (UniProt Q9Y2U5); assay: MEKK2(h) Kinase panel; conditions: Compound concentration 1.0 uM, tested as the 2H-labelled form
[44] = target: Protein kinase C iota type (Homo sapiens) (UniProt P41743); assay: PKCiota (h) Kinase panel; conditions: Compound concentration 1.0 uM, tested as the 2H-labelled form
[45] = target: Histamine H2 receptor (Homo sapiens) (UniProt P25021); conditions: Compound concentration 10.0 uM, tested as the 2H-labelled form
[46] = target: Ribosomal protein S6 kinase alpha-5 (Homo sapiens) (UniProt O75582); assay: MSK1(h) Kinase panel; conditions: Compound concentration 1.0 uM, tested as the 2H-labelled form
[47] = target: Epithelial discoidin domain-containing receptor 1 (Homo sapiens) (UniProt Q08345); assay: DDR1(h) Kinase panel; conditions: Compound concentration 1.0 uM, tested as the 2H-labelled form

Measured: inhibition

CC1(C)Cn2nc(-c3ccc(F)cn3)c(-c3ccnc4[nH]ncc34)c2CO1
inactive: [1] 17% | [2] -6% | [3] -2.78% | [4] 24% | [5] 6% | [6] 12% | Homo sapiens 2% | [7] -9% | [8] 11% | [9] 13% | [10] 31% | [11] 2.66% | [12] 96% | [13] 18% | [14] 12% | [15] -7% | [16] 9% | [17] 13% | [18] -2% | [19] 7% | [20] 5% | [21] 3% | [22] -5% | [23] -1.8% | [24] 5% | [25] -6% | [26] 1% | [27] 2% | [28] 4% | [29] -8% | [30] 15% | [31] 28% | [32] 0% | [33] -4% | [34] 30% | [35] -9.94% | [36] 19% | [37] 4% | [38] 0% | [39] -7% | [40] 9% | [41] 12% | [42] -9% | [43] 5% | [44] -2% | [45] -1.3% | [46] 8% | [47] 11%
